Results taken from publication PMC11284788, “NN1213 – A Potent, Long-Acting, and Selective Analog of Human Amylin” (Journal of Medicinal Chemistry, 2024).
Numbered stars: 1 amine (or outer) side, 2 acyl side, 3 side chain; on linkers, the order of the positions; unused ones are H or OH. Bridge positions count the residues as written; N and C are the ends. Side chains are listed from the residue outwards. Peptide text beside a SMILES is read from it. * marks the point of attachment. C20 diacid = O=C(O)CCCCCCCCCCCCCCCCCCC(=O)*; γGlu = O=C(O)[C@H](CCC(=O)[*:2])N[*:1]

How the values were obtained:
hAMY3R = molecular target: T1, hAMY3R (Homo sapiens, UniProt O60896+P30988); experiment: cAMP-responsive element luciferase reporter assay, human AMY3R; format: cell-based; set-up: expressed in transfected cells; details: for ratio hCTR/hAMY3R: ratio of luciferase EC50 values
T1 sequence (P30988 25-474): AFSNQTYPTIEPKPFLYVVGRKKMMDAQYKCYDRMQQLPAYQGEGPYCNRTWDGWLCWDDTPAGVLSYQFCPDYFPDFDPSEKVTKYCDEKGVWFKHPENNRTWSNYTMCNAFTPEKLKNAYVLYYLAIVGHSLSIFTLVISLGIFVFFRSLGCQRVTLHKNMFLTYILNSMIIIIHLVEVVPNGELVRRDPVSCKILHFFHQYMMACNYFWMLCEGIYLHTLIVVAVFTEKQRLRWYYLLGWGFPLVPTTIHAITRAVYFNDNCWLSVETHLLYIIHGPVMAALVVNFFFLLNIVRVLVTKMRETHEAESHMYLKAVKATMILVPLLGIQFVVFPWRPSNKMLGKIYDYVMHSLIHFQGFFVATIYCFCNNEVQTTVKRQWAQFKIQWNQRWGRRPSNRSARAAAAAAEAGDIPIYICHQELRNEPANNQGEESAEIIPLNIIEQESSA
T1 sequence (O60896 24-148 partner): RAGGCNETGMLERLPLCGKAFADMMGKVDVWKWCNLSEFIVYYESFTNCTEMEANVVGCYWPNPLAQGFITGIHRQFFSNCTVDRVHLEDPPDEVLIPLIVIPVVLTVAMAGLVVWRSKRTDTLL

[1] = ThT assay: fibril formation propensity and peptide recovery; format: physicochemical; details: for ThT, pH 4.0 lag-time: 250 μM peptide, 10 mM glycylglycine pH 4.0, 1 μM ThT, 37 °C, 960 rpm, 45 h, lowest of four replicas, average of experiments; for recovery: pH 4.0, residual dissolved peptide after 45 h of shaking, centrifugation and 0.22 μm filtration, HPLC, relative to amount before stress
In short: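 Fibrillation lag time is read visually from ThT fluorescence-time curves (444/485 nm, 20-min reads, 45 h, 37 °C, 960 rpm shaking) of 250 μM peptide with 1 μM ThT at pH 4.0 or 7.5. The most conservative of four replicates is used. Peptide recovery is post-stress soluble peptide (HPLC, 215/276 nm) as fraction of initial.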

Structure (SMILES)	hAMY3R pEC50 (hAMY3R; luciferase (human receptor assay), Tables S12 and S14)	ratio hCTR/hAMY3R (hAMY3R)	ThT, pH 4.0 lag-time [1] [h]	recovery [1] [%]
CC[C@H](C)[C@H](NC(=O)[C@H](C)NC(=O)CNC(=O)[C@H](Cc1ccccc1)NC(=O)[C@H](CC(N)=O)NC(=O)[C@@H]1CCCN1C(=O)[C@H](CO)NC(=O)[C@H](CO)NC(=O)[C@H](Cc1c[nH]cn1)NC(=O)[C@H](CCCNC(=N)N)NC(=O)[C@H](CC(C)C)NC(=O)[C@H](Cc1ccccc1)NC(=O)[C@H](CC(N)=O)NC(=O)[C@H](C)NC(=O)[C@H](CC(C)C)NC(=O)[C@H](CCCNC(=N)N)NC(=O)[C@H](CCC(N)=O)NC(=O)[C@@H](NC(=O)[C@H](C)NC(=O)[C@@H]1CSSC[C@H](NC(=O)[C@H](CCCNC(=N)N)NC(=O)CNC(=O)CC[C@H](NC(=O)CCCCCCCCCCCCCCCCCCC(=O)O)C(=O)O)C(=O)N[C@@H](CC(N)=O)C(=O)N[C@@H]([C@@H](C)O)C(=O)N[C@@H](C)C(=O)N[C@@H]([C@@H](C)O)C(=O)N1)[C@@H](C)O)C(=O)N1CCC[C@H]1C(=O)N[C@@H](CO)C(=O)N[C@@H](CO)C(=O)N[C@H](C(=O)N[C@@H](CC(N)=O)C(=O)N[C@H](C(=O)NCC(=O)N[C@@H](CO)C(=O)N[C@@H](Cc1c[nH]cn1)C(=O)N[C@H](C(=O)N[C@@H](Cc1ccc(O)cc1)C(N)=O)[C@@H](C)O)C(C)C)[C@@H](C)O [Peptide 19] ({C20 diacid-γGlu}-GRCNTATCATQRLANFLRHSSPNFGAIPSSTNVGSHTY-NH2; disulfide 3-8)	9.65	6	>45	84
CC[C@H](C)[C@H](NC(=O)[C@H](C)NC(=O)CNC(=O)[C@H](Cc1ccccc1)NC(=O)[C@H](CC(N)=O)NC(=O)[C@@H]1CCCN1C(=O)[C@H](CO)NC(=O)[C@H](CO)NC(=O)[C@H](Cc1c[nH]cn1)NC(=O)[C@H](CCCNC(=N)N)NC(=O)[C@H](CC(C)C)NC(=O)[C@H](Cc1ccccc1)NC(=O)[C@H](CCC(=O)O)NC(=O)[C@H](C)NC(=O)[C@H](CC(C)C)NC(=O)[C@H](CCCNC(=N)N)NC(=O)[C@H](CCC(N)=O)NC(=O)[C@@H](NC(=O)[C@H](C)NC(=O)[C@@H]1CSSC[C@H](NC(=O)[C@@H](N)CCCCNC(=O)CC[C@H](NC(=O)CCCCCCCCCCCCCCCCCCC(=O)O)C(=O)O)C(=O)N[C@@H](CC(N)=O)C(=O)N[C@@H]([C@@H](C)O)C(=O)N[C@@H](C)C(=O)N[C@@H]([C@@H](C)O)C(=O)N1)[C@@H](C)O)C(=O)N1CCC[C@H]1C(=O)N[C@@H](CO)C(=O)N[C@@H](CO)C(=O)N[C@H](C(=O)N[C@@H](CC(N)=O)C(=O)N[C@H](C(=O)NCC(=O)N[C@@H](CO)C(=O)N[C@@H](CCCNC(=N)N)C(=O)N[C@H](C(=O)N[C@@H](Cc1ccc(O)cc1)C(N)=O)[C@@H](C)O)C(C)C)[C@@H](C)O [Peptide 20] (H-K([γGlu-C20 diacid])CNTATCATQRLAEFLRHSSPNFGAIPSSTNVGSRTY-NH2; disulfide 2-7)		15	7	91
